# According to US20160022724A1, “METHODS FOR TREATING PARAMYXOVIRUSES” (Alios BioPharma, Inc., priority 2014, published 2016):
# What was measured:
# [1] = system: RSV-A Memphis 37b challenge virus; test: human RSV challenge model (viral load in nasal washes by plaque assay and PCR); assay type: in vivo
# Procedure: Healthy adults received one of the following dosing regimens or placebo over 5 days using the human RSV challenge model.
# Subjects were given an intranasal inoculation of RSV-A Memphis 37b challenge virus. Administration of compound (A), or a pharmaceutically acceptable salt thereof, began approximately 12 hours after confirmation of RSV infection as determined by the presence of RSV RNA in nasopharyngeal washes. The test compound was administered as an oral-liquid suspension, wherein the drug vehicle was methyl cellulose and sterile water. The placebo was the drug vehicle without the test compound. Second dosages were started 12 hours after administration of the first dosage, and the remaining second dosages were provided in approximate 12 hour intervals. Nasal washes were collected twice daily approximately 36 to 48 hours after RSV inoculation until Day 12. Viral load was detected and quantified from the aliquots of the nasal wash samples using tissue infectivity plaque assays and PCR. (See DeVincenzo, J. P., et al., Am. J. Respir. Crit. Care. Med. (2010) 182(10):1305-1314) Subjects returned for two follow-up visits on Day 16 (±2 days) and Day 28 (±2 days) post-challenge inoculation.
# [2] = half life of the triphosphate compound (B); conditions: triphosphate formed inside the cell
# Excerpt: The compounds (A) and (B), or a pharmaceutically acceptable salt of the foregoing, are described in U.S. Publication Nos. 2013/0165400 and 2015/0051167 and International Publication Nos. WO 2013/142525 and WO 2013/142525, all of which are hereby incorporated by reference in their entireties. Those skilled in the art understand that once compound (A), or a pharmaceutically acceptable salt thereof, is absorbed, the groups attached to 3′ and 5′ positions can be easily removed by esterases, proteases and/or other enzymes. Once inside the cell, the triphosphate (compound (B), or a pharmaceutically acceptable salt thereof) can be formed via metabolization by cellular enzymes.
Structure (SMILES),"RSV RNA ([1]; Day 12, all treated subjects)",RSV RNA ([1]; Day 16 follow-up),RSV RNA ([1]; Day 28 follow-up),"RSV viral load compared to the placebo ([1]; all regimens (750/150 mg, 750/500 mg, 375 mg), oral, 5 days, healthy adults, nasal wash, FIG. 1)","clinically significant laboratory abnormalities ([1]; healthy adults, 5 days dosing)","discontinuation of treatment during the study ([1]; healthy adults, 5 days dosing)","reduction of plaque forming units equivalents (PFUe/mL) ([1]; subjects who received 750 mg on Day 1, within the first 24 hours)",half-life [2] [h]
CC(C)C(=O)OC[C@@]1(CCl)O[C@@H](n2ccc(N)nc2=O)[C@H](F)[C@@H]1OC(=O)C(C)C [Compound (A)],undetectable,undetectable,undetectable,marked reduction in RSV viral load,no clinically significant laboratory abnormalities were observed,no subject discontinued treatment,multi-log reduction,–
Nc1ccn([C@@H]2O[C@](CCl)(COP(=O)(O)OP(=O)(O)OP(=O)(O)O)[C@@H](O)[C@H]2F)c(=O)n1 [Compound (B)],–,–,–,–,–,–,–,~17.6
